Results from patent publication US20220371989A1, “N-ACYL-TYROSINE DERIVATIVES AND USES THEREOF” (Sederma, priority 2019, published 2022).
Entries after “also recorded” stand apart in the source; their conditions may differ.

Columns and labels:
Type in all cases: cell-based
[1] = test system: Enterococcus faecium 15337; test: microbroth dilution antimicrobial assay, E. faecium 15337; details: for IC50: Enterococcus faecium 15337, microbroth dilution, 22 h, 37° C., triplicate, read-out: IC50 of N-Acyltyrosines
Experimental: (§1) To test the proposed structure-activity relationship (SAR), a structural analogue compound (2) of compound (1) was synthesized that lacks an a-methyl substituent, and compound (2) was tested for antimicrobial activity in parallel with compound (1). Analogues (3) and (4) were also synthesized and assayed to further support a potential SAR involving the O-methyl substituent (FIG. 16-21). To thoroughly characterize the anti-Enterococcal activity of compounds (1)-(4), five veterinary clinical isolates from veterinary cases (in addition to VRE EF379) were obtained for this study. All five clinical isolates were classified as vancomycin-susceptible.
(§2) Evaluation of antimicrobial activity and cytotoxicity. The following five Enterococcus spp. were isolated from clinical specimens at the Atlantic Veterinary College (AVC) by the AVC Diagnostic Services Bacteriology Laboratory. Isolates were identified using the Bruker microflex LT MALDI-TOF with MBT Compass version 4.179. The direct colony transfer method was used with the Bruker Matrix HCCA (α-cyano-4-hydroxycinnamic acid) overlay, following manufacturer guidelines. Score values between 2.00 and 3.00 were considered high confidence identifications. The following isolates (with source species) were identified: E. faecium 15337 (feline), E. faecalis 16371 (canine), E. gallinarum 20993 (erinaceine), E. casseliflavus 15984 (equine) and E. hirae 17446 (avine). Antimicrobial activity of 1-4 was evaluated against all five clinical Enterococcus isolates in addition to methicillin-resistant Staphylococcus aureus ATCC 33591 (MRSA), S. warneri ATCC 17917, vancomycin-resistant Enterococcus faecium EF379 (VRE), Pseudomonas aeruginosa ATCC 14210, Proteus vulgaris ATCC 12454 and Candida albicans ATCC 14035. All testing was carried out in triplicate according to the Clinical Laboratory Standards Institute testing standards in a 96-well plate microbroth dilution assay as previously described.^14 Optical density was measured using a Thermo Scientific Varioskan Flash plate reader at 600 nm, recording at time zero and then again after incubation for 22 h (37° C.) to determine percent growth inhibition. Cytotoxicity was evaluated against Vero kidney cell line from African green monkey (Cercopithecus aethiops), MCF7 human breast adenocarcinoma cells (ATCC HTB-22), human breast adenocarcinoma cells (ATCC HTB-26) and HCT-116 human colorectal carcinoma cells (ATCC CCL-247). All assays were carried out as described previously.^14 Fluorescence was measured using a Thermo Scientific Varioskan Flash plate reader at 560/12 excitation, 590 nm emission both at time zero and 4 h after alamarBlue (Invitrogen) addition. For both antimicrobial and cytotoxicity data, growth inhibition was expressed as a percentage and plotted against the logarithm of concentration.

Enterococcus hirae 17446 = test: microbroth dilution antimicrobial assay, E. hirae 17446; details: for IC50: Enterococcus hirae 17446, microbroth dilution, 22 h, 37° C., triplicate, read-out: IC50 of N-Acyltyrosines
Experimental: as §1, §2

[2] = test system: Enterococcus casseliflavus 15984; test: microbroth dilution antimicrobial assay, E. casseliflavus 15984; details: for IC50: Enterococcus casseliflavus 15984, microbroth dilution, 22 h, 37° C., triplicate, read-out: IC50 of N-Acyltyrosines
Experimental: as §1, §2

[3] = test system: Enterococcus gallinarum 20993; test: microbroth dilution antimicrobial assay, E. gallinarum 20993; details: for IC50: Enterococcus gallinarum 20993, microbroth dilution, 22 h, 37° C., triplicate, read-out: IC50 of N-Acyltyrosines
Experimental: as §1, §2

[4] = test system: Enterococcus faecalis 16371; test: microbroth dilution antimicrobial assay, E. faecalis 16371; details: for IC50: Enterococcus faecalis 16371, microbroth dilution, 22 h, 37° C., triplicate, read-out: IC50 of N-Acyltyrosines
Experimental: as §1, §2

[5] = test system: Proteus vulgaris ATCC 12454; test: microbroth dilution antimicrobial assay, Proteus vulgaris ATCC 12454
Text: (§3) α-Methylation of N-pamitoyltyrosines confers antimicrobial activity. Compound (1) was initially screened for antimicrobial activity against the following panel of pathogenic bacteria and fungi in Table 1 in microbroth dilution assays: methicillin-resistant Staphylococcus aureus (MRSA), Staphylococcus warneri, vancomycin-resistant Enterococcus faecium (VRE), Pseudomonas aeruginosa, Proteus vulgaris and Candida albicans. […]
(§4) Evaluation of antimicrobial activity and cytotoxicity. […] Antimicrobial activity of 1-4 was evaluated against all five clinical Enterococcus isolates in addition to methicillin-resistant Staphylococcus aureus ATCC 33591 (MRSA), S. warneri ATCC 17917, vancomycin-resistant Enterococcus faecium EF379 (VRE), Pseudomonas aeruginosa ATCC 14210, Proteus vulgaris ATCC 12454 and Candida albicans ATCC 14035. All testing was carried out in triplicate according to the Clinical Laboratory Standards Institute testing standards in a 96-well plate microbroth dilution assay as previously described.^14 Optical density was measured using a Thermo Scientific Varioskan Flash plate reader at 600 nm, recording at time zero and then again after incubation for 22 h (37° C.) to determine percent growth inhibition. […] For both antimicrobial and cytotoxicity data, growth inhibition was expressed as a percentage and plotted against the logarithm of concentration.

[6] = test system: Staphylococcus aureus ATCC 33591 (MRSA); test: microbroth dilution antimicrobial assay, S. aureus ATCC 33591 (MRSA); details: for growth inhibition (in words): S. aureus (MRSA); for growth inhibition (in words) / IC50: microbroth dilution; for IC50: Staphylococcus aureus ATCC 33591 (MRSA), 22 h, 37° C., triplicate, read-out: IC50 of N-Acyltyrosines; for growth at the highest concentration tested (in words): 128 μg/mL
Text: (§5) α-Methylation of N-pamitoyltyrosines confers antimicrobial activity. Compound (1) was initially screened for antimicrobial activity against the following panel of pathogenic bacteria and fungi in Table 1 in microbroth dilution assays: methicillin-resistant Staphylococcus aureus (MRSA), Staphylococcus warneri, vancomycin-resistant Enterococcus faecium (VRE), Pseudomonas aeruginosa, Proteus vulgaris and Candida albicans. […] The inventors were aware of no reports on anti-Staphylococcus activity of N-acyltyrosines or on anti-Enterococcal activity of any N-acylated amino acid; thus, it was hypothesized that the α-methyl substituent of compound (1) may be a key component of the antimicrobial pharmacophore of compound 1, may confer Staphylococcus inhibitory activity to N-acyltyrosines, and/or perhaps may play a role in their Enterococcus activity.
as §2

[7] = test system: Enterococcus faecium EF379 (VRE); test: microbroth dilution antimicrobial assay, E. faecium EF379 (VRE); details: for IC50: Enterococcus faecium EF379 (VRE), 22 h, 37° C., triplicate, read-out: IC50 of N-Acyltyrosines
Text: as §5, §1, §2

[8] = test system: Pseudomonas aeruginosa ATCC 14210; test: microbroth dilution antimicrobial assay, P. aeruginosa ATCC 14210
Text: as §3, §4

[9] = test system: Candida albicans ATCC 14035; test: microbroth dilution antimicrobial assay, Candida albicans ATCC 14035
Text: as §3, §4

[10] = test system: Staphylococcus warneri ATCC 17917; test: microbroth dilution antimicrobial assay, S. warneri ATCC 17917; details: for IC50: ATCC17917, Staphylococcus warneri ATCC 17917, 22 h, 37° C., triplicate, read-out: IC50 of N-Acyltyrosines; for IC50 / growth inhibition (in words): microbroth dilution; for growth at the highest concentration tested (in words): 128 μg/mL
Text: as §5, §2

Structure (SMILES) | IC50 [1] [µM] | IC50 (Enterococcus hirae 17446) [µM] | IC50 [2] [µM] | IC50 [3] [µM] | IC50 [4] [µM] | growth inhibition (in words) [6] | IC50 [6] [µM] | IC50 ([7]; microbroth dilution) [µM] | IC50 [10] [µM] | growth inhibition (in words) ([10]; S. warneri) | growth at the highest concentration tested (in words) ([6]; S. aureus) | growth at the highest concentration tested (in words) ([10]; S. warneri) | other results
CCCCCCCCCCCCCCCC(=O)N[C@@](C)(Cc1ccc(OC)cc1)C(=O)O [Compound 1, N-Palmitoyl-α,O-dimethyl-L-tyrosine] | 7.2 | 4.1 | 3.1 | 4 | 7.4 | Growth inhibition was observed; also recorded: inhibited | > 286 | 1.6 | > 286 | Growth inhibition was observed |  |  | IC50 ([5]; ATCC12454, Proteus vulgaris ATCC 12454, microbroth dilution, read-out: IC50 of N-Acyltyrosines): > 286 µM; antimicrobial activity (in words) ([5]; Gram-negative pathogen Proteus vulgaris, initial screen): no activity was observed; Incomplete growth inhibition ([6]; S. aureus, 8-128 μg/mL (footnote b)): < 75%; concentration at which maximum inhibition was achieved ([6]; S. aureus, inhibition incomplete, plateaued at higher concentrations (FIG. 25)): 8 µg/mL; growth inhibition (in words) ([7]; VRE, initial screen, microbroth dilution): Growth inhibition was observed; IC50 ([8]; ATCC14210, Pseudomonas aeruginosa ATCC 14210, microbroth dilution, read-out: IC50 of N-Acyltyrosines): > 286 µM; antimicrobial activity (in words) ([8]; Gram-negative pathogen Pseudomonas aeruginosa, initial screen): no activity was observed; IC50 ([9]; ATCC14035, Candida albicans ATCC 14035, microbroth dilution, read-out: IC50 of N-Acyltyrosines): > 286 µM; antimicrobial activity (in words) ([9]; fungal pathogen Candida albicans, initial screen): no activity was observed; Incomplete growth inhibition ([10]; S. warneri, from 2-64 μg/mL (footnote b)): < 50%
CCCCCCCCCCCCCCCC(=O)N[C@@H](Cc1ccc(OC)cc1)C(=O)O [Compound 2, N-Palmitoyl-O-methyl-L-tyrosine] | 10.5 | 3.6 | 10.7 | 71.5 | > 295 |  | > 295 | 13.3 | > 295 |  | unaffected | unaffected | Enterococcus inhibitory activity (in words) ([4]; E. faecalis 16371, FIG. 24 legend): inactive
CCCCCCCCCCCCCCCC(=O)N[C@@](C)(Cc1ccc(O)cc1)C(=O)O [Compound 3, N-Palmitoyl-α-methyl-L-tyrosine] | 9.9 | 4.6 | 9 | 4.6 | 9.2 to 18.4 | inhibited | 9.2 to 18.4 | 5.3 | 9.2 to 18.4 | inhibited |  |  | 
CCCCCCCCCCCCCCCC(=O)N[C@@H](Cc1ccc(O)cc1)C(=O)O [Compound 4, N-Palmitoyl-L-tyrosine] | > 305 | 5.6 | 32.1 | 146 | 77.1 |  | > 305 | 10.7 | > 305 |  | unaffected | unaffected | Enterococcus inhibitory activity (in words) ([1]; E. faecium 15337, FIG. 24 legend): inactive; Incomplete growth inhibition ([1]; E. faecium 15337, at all tested concentrations (footnote b)): < 50
CO[C@H]1/C=C/O[C@@]2(C)Oc3c(C)c(O)c4c(O)c(c(/C=N/N5CCN(C)CC5)c(O)c4c3C2=O)NC(=O)/C(C)=C\C=C\[C@H](C)[C@H](O)[C@@H](C)[C@@H](O)[C@@H](C)[C@H](OC(C)=O)[C@@H]1C [RIF, reference compound] |  |  |  |  |  |  |  |  |  |  |  |  | IC50 of positive control antibiotic ([1]; E. faecium 15337, positive control): > 16 µg/mL; IC50 of positive control antibiotic (Enterococcus hirae 17446; E. hirae 17446, positive control): < 0.5 µg/mL; IC50 of positive control antibiotic ([2]; E. casseliflavus 15984, positive control): 0.9 µg/mL; IC50 of positive control antibiotic ([3]; E. gallinarum 20993, positive control): 3 µg/mL; IC50 of positive control antibiotic ([4]; E. faecalis 16371, positive control): > 8 µg/mL; IC50 of positive control antibiotic ([7]; E. faecium EF379, positive control): 4 µg/mL
CN[C@H](CC(C)C)C(=O)N[C@H]1C(=O)N[C@@H](CC(N)=O)C(=O)N[C@H]2C(=O)N[C@H]3C(=O)N[C@H](C(=O)N[C@H](C(=O)O)c4cc(O)cc(O)c4-c4cc3ccc4O)[C@H](O)c3ccc(c(Cl)c3)Oc3cc2cc(c3O[C@@H]2O[C@H](CO)[C@@H](O)[C@H](O)[C@H]2O[C@H]2C[C@](C)(N)[C@H](O)[C@H](C)O2)Oc2ccc(cc2Cl)[C@H]1O [VAN, reference compound] |  |  |  |  |  |  |  |  |  |  |  |  | IC50 of positive control antibiotic ([6]; S. aureus ATCC 33591, positive control): 2 µg/mL; IC50 of positive control antibiotic ([10]; S. warneri, positive control): < 0.125 µg/mL
